Measurements from US7700577B2, “Carbohydrate based anti-bacterials” (Alchemia Limited, priority 2002, dated 2010).

Columns and labels:
[1] = tested on: S. aureus; test: MIC testing, broth microdilution (NCCLS), S. aureus; format: cell-based, Staphylococcus aureus; settings: for SA24 (MIC): S. aureus after 24 hours exposure; for SA48 (MIC): S. aureus after 48 hours exposure
From the text: (§1) The broth microdilution format of the National Committee for Clinical Laboratory Standards (NCCLS) approved standard for susceptibility tests as outlined in M7-A4 “methods for dillution Antimicrobial susceptibility tests for bacteria that grow aerobically; approved standard—fifth edition”, January 2000 was utilized for minimum inhibitory concentration testing in Mueller-Hinton broth. The broth for Streptococcus pyogenes testing was supplemented with 2% laked horse blood. A positive result in initial testing was determined by complete inhibition of macroscopic bacterial growth at a concentration of 128 micrograms per mL after incubation for 16 to 24 hours at 37 degrees C. In the case of Micrococcus luteus, incubation was at 30 degrees C. […] Bacterial Types Are: • SA24 S. aureus after 24 hours exposure • SA48 S. aureus after 48 hours exposure • EC24 E. coli after 24 hours exposure

[2] = tested on: Streptococcus pyrogenes (ATCC8668); test: MIC testing, additional organisms: Streptococcus pyrogenes; format: cell-based; settings: broth supplemented with 2% laked horse blood
From the text: (§2) The broth microdilution format of the National Committee for Clinical Laboratory Standards (NCCLS) approved standard for susceptibility tests as outlined in M7-A4 “methods for dillution Antimicrobial susceptibility tests for bacteria that grow aerobically; approved standard—fifth edition”, January 2000 was utilized for minimum inhibitory concentration testing in Mueller-Hinton broth. The broth for Streptococcus pyogenes testing was supplemented with 2% laked horse blood. A positive result in initial testing was determined by complete inhibition of macroscopic bacterial growth at a concentration of 128 micrograms per mL after incubation for 16 to 24 hours at 37 degrees C. In the case of Micrococcus luteus, incubation was at 30 degrees C.
(§3) Bacterial Types Are: • SA24 S. aureus after 24 hours exposure • SA48 S. aureus after 48 hours exposure • EC24 E. coli after 24 hours exposure
(§4) The following compounds were tested against additional organisims with the following results. • 1. Micrococcus luteus (ATCC272) • 2. Staphylococcus aureus (ATCC29213) • 3. Staphylococcus aureus (ATCC43300) MRSA • 4. Enterococcus faecalis (ATCC29212) • 5. Enterococcus faecalis (ATCCS 1299) Vancomycin resistant • 6. Streptococcus pyrogenes (ATCC8668)

[3] = tested on: Enterococcus faecalis (ATCC29212); test: MIC testing, additional organisms: Enterococcus faecalis ATCC29212; format: cell-based
From the text: as §2, §3, §4

[4] = tested on: Staphylococcus aureus (ATCC29213); test: MIC testing, additional organisms: Staphylococcus aureus ATCC29213; format: cell-based
From the text: as §2, §3, §4

[5] = tested on: Micrococcus luteus (ATCC272); test: MIC testing, additional organisms: Micrococcus luteus; format: cell-based; settings: incubation at 30 degrees C
From the text: as §2, §3, §4

[6] = tested on: Enterococcus faecalis (ATCCS 1299) Vancomycin resistant; test: MIC testing, additional organisms: Enterococcus faecalis vancomycin resistant; format: cell-based
From the text: as §2, §3, §4

[7] = tested on: Staphylococcus aureus (ATCC43300) MRSA; test: MIC testing, additional organisms: Staphylococcus aureus MRSA; format: cell-based
From the text: as §2, §3, §4

[8] = tested on: E. coli; test: MIC testing, broth microdilution (NCCLS), E. coli; format: cell-based; settings: E. coli after 24 hours exposure
From the text: as §1

SMILES | SA24 (MIC) [1] | SA48 (MIC) [1] | MIC, organism 6 [2] | MIC, organism 4 [3] | MIC, organism 2 [4] | MIC, organism 1 [5] | MIC, organism 5 [6] | MIC, organism 3 [7] | EC24 (MIC) [8]
CCCCCCCC(=O)Nc1ccc(C(=O)NC2C(CO)OCC(NC(=O)Nc3cccc(C(F)(F)F)c3)C2OC2OC(CO)C(O)C(O)C2NC(=O)Nc2cccc(C(F)(F)F)c2)cc1 (centres unmarked) [compound 65] | + (+ indicates an MIC value of less than 128 micrograms per mL) | + (+ indicates an MIC value of less than 128 micrograms per mL) | + (+ indicates an MIC value of less than 128 micrograms per mL) | + (+ indicates an MIC value of less than 128 micrograms per mL) | − (− indicates an MIC of greater then 128 micrograms per mL) | + (+ indicates an MIC value of less than 128 micrograms per mL) | − (− indicates an MIC of greater then 128 micrograms per mL) | − (− indicates an MIC of greater then 128 micrograms per mL) | 
CCCCCCCCCCC(=O)NC1C(CO)OCC(NC(=O)Nc2cccc(C(F)(F)F)c2)C1OC1OC(CO)C(O)C(O)C1NC(=O)Nc1cccc(C(F)(F)F)c1 (centres unmarked) [compound 77] | + (+ indicates an MIC value of less than 128 micrograms per mL) | + (+ indicates an MIC value of less than 128 micrograms per mL) | + (+ indicates an MIC value of less than 128 micrograms per mL) | + (+ indicates an MIC value of less than 128 micrograms per mL) | + (+ indicates an MIC value of less than 128 micrograms per mL) | + (+ indicates an MIC value of less than 128 micrograms per mL) | + (+ indicates an MIC value of less than 128 micrograms per mL) | + (+ indicates an MIC value of less than 128 micrograms per mL) | − (− indicates an MIC of greater then 128 micrograms per mL)
